Measured values published in paper PMC8583417, “Evaluation of the Antimicrobial Efficacy of N-Acetyl-L-Cysteine, Rhamnolipids, and Usnic Acid—Novel Approaches to Fight Food-Borne Pathogens” (International Journal of Molecular Sciences, 2021).

Columns and labels:
S. aureus 1241 [1] = test: MIC for reduction of preformed biofilm (crystal violet staining); format: cell-based, Staphylococcus aureus; conditions: for maximal achieved inhibition (MICBR80 not reached), biofilm reduction: preformed biofilm, within tested concentrations; for MICBR80: ≥80% reduction of preformed biofilm (18 h), 20 h with substance
Description: (§1) Ten concentrations of NAC, RLs, and UA were tested to determine the minimum inhibitory concentration for planktonic growth, and subsequently, the six highest concentrations were applied on preformed biofilms to evaluate the biofilm eradication ability of the compounds. MIC was defined as the lowest substance concentration able to inhibit at least 80% of microbial growth (MICPC80 for planktonic cells, MICBC80 for further growth of biofilm cells), inhibit 80% of metabolic activity (MICBM80 for biofilm metabolic activity, MICMPB80 for metabolic activity of preformed biofilm), prevent biofilm formation by at least 80% (MICBF80 for biofilm formation), or reduce a preformed biofilm by at least 80% (MICBR80 for biofilm reduction). The results of MICs are summarized in Table 1 (planktonic cells) and Table 2 (biofilm-associated cells).
(§2) The determination of MICs was performed according to Chlumsky et al.. Briefly, 96-well flat-bottomed microtiter plates were inoculated with 75 µL (for biofilm formation) or 100 µL (for preformed biofilm) of bacterial suspension (A625nm 0.08 to 0.1) in technical triplicates and were then carefully mixed with the dilution series of the test substances (24 h cultivation at 25 °C for S. Infantis, 37 °C for other strains) or were directly cultivated to preform biofilms (18 h). For a positive control of bacterial growth, the inoculum was mixed with a pure sterile medium. Furthermore, the sterile medium was included in the plate as a marker of potential microbial contamination. To evaluate planktonic cells growth (MICPC80) and further growth of biofilm cells (MICBC80), the optical density of the content of the microtiter plates was measured spectrophotometrically at 625 nm before and after 24 h (for biofilm formation) of cultivation or before and after additional 20 h incubation with the tested compound (for preformed biofilm). The difference of A625nm was considered as a measure of the ability of cells to grow in the presence of the tested substances. To evaluate the inhibition of biofilm formation (MICBF80) and reduction in preformed biofilms (MICBR80), biomass was quantified using crystal violet staining, and its metabolic activity (MICBM80 and MICMPB80) was estimated by using the MTT (thiazyl tetrazolium bromide, Sigma-Aldrich, USA) reduction assay, both measured spectrophotometrically at 595 nm.
(§3) All inhibitions were calculated using the formula of Chlumsky et al. below (Equation (1)):(1) A625(595)nm inhibition (%)=A625(595)nm (control) – A625(595)nm(natural substance)/A625(595)nm (control)× 100 where A625(595)nm (control) is the absorbance of bacterial suspension/biofilm itself, and A625(595)nm(natural substance) is the absorbance of the bacterial suspension/biofilm with the added natural substance (NAC, RLs, and UA).
(§4) When the minimum inhibitory concentration could not be determined, the MIC was established as >the highest tested concentration for NAC, RLs, and UA.

S. aureus 816 [2] = test: as above; format: cell-based, Staphylococcus aureus; conditions: for MICBR80: ≥80% reduction of preformed biofilm (18 h), 20 h with substance
Description: as §1, §2, §3, §4

L. monocytogenes 149 = test: MIC for metabolic activity of preformed biofilm (MTT reduction assay); format: cell-based, Listeria monocytogenes; conditions: ≥80% inhibition, 20 h with substance
Description: as §1
as §2, with “Furthermore, the sterile medium was included in the plate as a marker of potential microbial contamination.” left out, “The difference of A625nm was considered as a measure of the ability of cells to grow in the presence of the tested substances.” left out
as §3, §4

L. monocytogenes 164 = test: as above; format: cell-based, Listeria monocytogenes; conditions: ≥80% inhibition, 20 h with substance
Description: as §1
as §2, with “Furthermore, the sterile medium was included in the plate as a marker of potential microbial contamination.” left out, “The difference of A625nm was considered as a measure of the ability of cells to grow in the presence of the tested substances.” left out
as §3, §4

E. coli 683/17 = test: MIC for biofilm metabolic activity (MTT reduction assay); format: cell-based, Escherichia coli; conditions: for MICBM80: ≥80% inhibition, 24 h
Description: as §1, §2, §3, §4

E. coli 693/17 = test: as above; format: cell-based, Escherichia coli; conditions: for MICBM80: ≥80% inhibition, 24 h
Description: as §1, §2, §3, §4

S. Infantis S13 = test: MIC for metabolic activity of preformed biofilm (MTT reduction assay); format: cell-based, Salmonella enterica Infantis; conditions: for MICMPB80: ≥80% inhibition, 20 h with substance
Description: as §1, §2, §3, §4

S. Infantis S59 = test: as above; format: cell-based, Salmonella enterica Infantis; conditions: for MICMPB80: ≥80% inhibition, 20 h with substance
Description: as §1, §2, §3, §4

S. aureus 1241 [3] = test: MIC for planktonic cell growth (A625nm); format: cell-based, Staphylococcus aureus; conditions: ≥80% inhibition, 24 h
Description: as §1
as §2, with “Furthermore, the sterile medium was included in the plate as a marker of potential microbial contamination.” left out, “The difference of A625nm was considered as a measure of the ability of cells to grow in the presence of the tested substances.” left out
as §3, §4

S. aureus 816 [4] = test: MIC for planktonic cell growth (A625nm); format: cell-based, Staphylococcus aureus; conditions: ≥80% inhibition, 24 h
Description: as §1
as §2, with “Furthermore, the sterile medium was included in the plate as a marker of potential microbial contamination.” left out, “The difference of A625nm was considered as a measure of the ability of cells to grow in the presence of the tested substances.” left out
as §3, §4

CC(=O)c1c(O)c(C)c(O)c2c1OC1=CC(=O)C(C(C)=O)C(=O)C12C (single isomer, unassigned; (+)) [UA, (+)-usnic acid]
maximal achieved inhibition (MICBR80 not reached), biofilm reduction (S. aureus 1241 [1]): 72% | MICBR80 (S. aureus 1241 [1]): > 31.3 µg/mL | maximal achieved inhibition (MICBR80 not reached), biofilm reduction (S. aureus 816 [2]; preformed biofilm, within tested concentrations): 35% | MICBR80 (S. aureus 816 [2]): > 31.3 µg/mL | MICMPB80 (L. monocytogenes 149): 3.91 µg/mL | MICMPB80 (L. monocytogenes 164): 1.96 µg/mL | maximal achieved inhibition (MICBM80 not reached) (E. coli 683/17; within tested concentrations): 27% | MICBM80 (E. coli 683/17): > 31.3 µg/mL | maximal achieved inhibition (MICBM80 not reached) (E. coli 693/17; within tested concentrations): 16% | MICBM80 (E. coli 693/17): > 31.3 µg/mL | maximal achieved inhibition (MICMPB80 not reached) (S. Infantis S13; within tested concentrations): 17% | MICMPB80 (S. Infantis S13): > 31.3 µg/mL | maximal achieved inhibition (MICMPB80 not reached) (S. Infantis S59; within tested concentrations): 26% | MICMPB80 (S. Infantis S59): > 31.3 µg/mL | MICPC80 (S. aureus 1241 [3]): 0.24 µg/mL | MICPC80 (S. aureus 816 [4]): 0.24 µg/mL

CC(=O)N[C@@H](CS)C(=O)O [NAC, N-Acetyl-L-cysteine]
maximal achieved inhibition (MICBR80 not reached), biofilm reduction (S. aureus 1241 [1]): 31% | MICBR80 (S. aureus 1241 [1]): > 100,000 µg/mL | MICBR80 (S. aureus 816 [2]): 12,500 µg/mL | MICMPB80 (L. monocytogenes 149): 6250 µg/mL | MICMPB80 (L. monocytogenes 164): 6250 µg/mL | MICBM80 (E. coli 683/17): 6250 µg/mL | MICBM80 (E. coli 693/17): 6250 µg/mL | MICMPB80 (S. Infantis S13): 12,500 µg/mL | MICMPB80 (S. Infantis S59): 12,500 µg/mL | MICPC80 (S. aureus 1241 [3]): 3130 µg/mL | MICPC80 (S. aureus 816 [4]): 3130 µg/mL
